Columns and labels:
Type in all cases: in vivo
[1] = tested on: Avena fatua; assay: Pre-emergence herbicidal effect; settings: for Pre-emergence effectiveness AVEFA: visual score after 3 weeks
Text: (§1) Seeds of monocotyledonous and dicotyledonous weed plants and crop plants are laid out in wood-fibre pots in sandy loam and covered with soil. The compounds according to the invention formulated in the form of wettable powders (WP) or as emulsion concentrates (EC) are then applied as aqueous suspension or emulsion at a water application rate of 600 to 800 l/ha (converted) with the addition of 0.2% wetting agent to the surface of the covering soil. After the treatment, the pots are placed in a greenhouse and kept under good growth conditions for the trial plants. The damage to the test plants is scored visually after a test period of 3 weeks by comparison with untreated controls (herbicidal activity in percent (%): 100% activity=the plants have died, 0% activity=like control plants).

[2] = tested on: Cyperus esculentus; assay: Pre-emergence herbicidal effect; settings: for Pre-emergence effectiveness CYPES: 320 g/ha, visual score after 3 weeks
Text: as §1

[3] = tested on: Setaria viridis; assay: Pre-emergence herbicidal effect; settings: for Pre-emergence effectiveness SETVI: visual score after 3 weeks
Text: as §1

[4] = tested on: Alopecurus myosuroides; assay: Pre-emergence herbicidal effect; settings: visual score after 3 weeks
Text: as §1

[5] = tested on: Echinochloa crus-galli; assay: Pre-emergence herbicidal effect; settings: visual score after 3 weeks
Text: as §1

[6] = tested on: Lolium multiflorum; assay: Pre-emergence herbicidal effect; settings: visual score after 3 weeks
Text: as §1

[7] = tested on: Echinochloa crus-galli; assay: Post-emergence herbicidal effect; settings: visual assessment after about 3 weeks
Method: (§2) Seeds of monocotyledonous and dicotyledonous weed and crop plants are laid out in sandy loam in wood-fibre pots, covered with soil and cultivated in a greenhouse under good growth conditions. 2 to 3 weeks after sowing, the test plants are treated at the one-leaf stage. The compounds according to the invention, formulated in the form of wettable powders (WP) or as emulsion concentrates (EC), are then sprayed as aqueous suspension or emulsion at a water application rate of 600 to 800 l/ha (converted) with the addition of 0.2% of wetting agent onto the green parts of the plants. After the test plants have been left to stand in the greenhouse under optimal growth conditions for about 3 weeks, the action of the preparations is assessed visually in comparison to untreated controls (herbicidal action in percent (%): 100% activity=the plants have died, 0% activity=like control plants).

[8] = tested on: Setaria viridis; assay: Post-emergence herbicidal effect; settings: visual assessment after about 3 weeks
Method: as §2

[9] = tested on: Alopecurus myosuroides; assay: Post-emergence herbicidal effect; settings: visual assessment after about 3 weeks
Method: as §2

[10] = tested on: Avena fatua; assay: Post-emergence herbicidal effect; settings: visual assessment after about 3 weeks
Method: as §2

[11] = tested on: Lolium multiflorum; assay: Post-emergence herbicidal effect; settings: visual assessment after about 3 weeks
Method: as §2

Compound	Pre-emergence effectiveness ALOMY ([4]; 80 g/ha)	Pre-emergence effectiveness ALOMY ([4]; 320 g/ha)	Pre-emergence effectiveness ECHCG ([5]; 80 g/ha)	Pre-emergence effectiveness ECHCG ([5]; 320 g/ha)	Pre-emergence effectiveness LOLMU ([6]; 320 g/ha)	Pre-emergence effectiveness SETVI ([3]; 80 g/ha)	Pre-emergence effectiveness SETVI ([3]; 320 g/ha)	Post-emergence effectiveness ECHCG ([7]; 80 g/ha)	Post-emergence effectiveness SETVI ([8]; 80 g/ha)	Pre-emergence effectiveness AVEFA ([1]; 80 g/ha)	Pre-emergence effectiveness AVEFA ([1]; 320 g/ha)	Pre-emergence effectiveness LOLMU ([6]; 80 g/ha)	Post-emergence effectiveness ALOMY ([9]; 20 g/ha)	Post-emergence effectiveness ALOMY ([9]; 80 g/ha)	Post-emergence effectiveness AVEFA ([10]; 20 g/ha)	Post-emergence effectiveness AVEFA ([10]; 80 g/ha)	Post-emergence effectiveness ECHCG ([7]; 20 g/ha)	Post-emergence effectiveness LOLMU ([11]; 20 g/ha)	Post-emergence effectiveness LOLMU ([11]; 80 g/ha)	Post-emergence effectiveness SETVI ([8]; 20 g/ha)	further results
CC#Cc1cc(C)c(C2=C(OC(=O)OCC)C3(CCC(COC)CC3)NC2=O)c(CC)c1 (stereo not shown) [Ia-17]																					Comparison data for pre-emergence effectiveness AVEFA ([1]; 20 g a.i./ha): 60%; Comparison data for pre-emergence effectiveness CYPES ([2]; 20 g a.i./ha): 100%; Comparison data for pre-emergence effectiveness SETVI ([3]; 20 g a.i./ha): 100%
CCOC(=O)OC1=C(c2c(C)cc(C#CC3CC3)cc2C)C(=O)NC12CCC(COC)C2 (stereo not shown) [Example Ia-2]	80%	100%	100%	100%	80%	90%	100%	80%	80%												Pre-emergence effectiveness CYPES [2]: 100%
CC#Cc1cc(C)c(C2=C(OC(=O)OCC)C3(CCC(OCCOC)CC3)NC2=O)c(CC)c1 (stereo not shown) [Ia-14]	80%	100%	100%	100%	100%	100%	100%			80%	80%	90%									Pre-emergence effectiveness CYPES [2]: 100%
CC#Cc1cc(C)c(C2=C(OC(=O)C(C)C)C3(CCC(COC)C3)NC2=O)c(CC)c1 (stereo not shown) [Example Ia-9]								100%	100%				100%	100%	90%	90%	100%	90%	90%	100%	
CCc1cc(C#CC2CC2)cc(C)c1C1=C(O)C2(CCC(COC)C2)NC1=O (stereo not shown) [Example I-12]		100%	90%	100%	100%	90%	100%	100%	100%	100%	80%	100%		90%	80%	80%	100%		90%	100%	
CC#Cc1cc(C)c(C2=C(O)C3(CCC(COC)C3)NC2=O)c(CC)c1 (stereo not shown) [Example I-9]	100%	100%	100%	100%	100%	90%	100%	100%	100%		90%	80%	100%	100%	90%	100%	100%	100%	100%	100%	
COCC1CCC2(C1)NC(=O)C(c1c(C)cc(C#CC3CC3)cc1C)=C2O (mixture of isomers) [Example I-14]		100%	100%	100%	100%	90%	90%	100%	90%		80%			80%			90%	90%	90%	90%	
CC#Cc1cc(C)c(C2=C(O)C3(CCC(COC)C3)NC2=O)c(CC)c1 (stereo not shown) [Example I-10]	90%	100%	100%	100%	100%	80%	100%	100%	100%	80%	100%	100%	100%	100%	100%	100%	100%	100%	100%	90%	
CC#Cc1cc(CC)c(C2=C(O)C3(CCC(CCOC)CC3)NC2=O)c(CC)c1 (stereo not shown) [Example I-1]	80%	100%	100%	100%	100%	100%	100%	100%	100%		80%	100%		90%		90%	100%	90%	90%	90%	
CCc1cc(C#CC2CC2)cc(C)c1C1=C(OC(=O)C(C)C)C2(CCC(COC)C2)NC1=O (mixture of isomers) [Example Ia-10]	90%	100%	100%	100%	100%	90%	100%	90%	100%			80%		80%			90%	80%	90%	100%	Pre-emergence effectiveness CYPES [2]: 80%
CC#Cc1cc(C)c(C2=C(OC(=O)C(C)C)C3(CCC(COC)C3)NC2=O)c(CC)c1 (stereo not shown) [Example Ia-8]	100%	100%	100%	100%	100%	80%	100%	100%	100%	90%	90%	100%	100%	100%		100%	100%	100%	100%	100%	
CCc1cc(C#CC2CC2)cc(C)c1C1=C(OC(=O)C(C)C)C2(CCC(COC)C2)NC1=O (stereo not shown) [Example Ia-12]	100%	100%	100%	100%	100%	90%	100%	100%	100%		90%	100%	90%	90%	100%	100%	100%	90%	100%	100%	
